In patent US11198713B2, “Agents modulating beta-catenin functions and methods thereof” (FOG PHARMACEUTICALS, INC., priority 2017, dated 2021):

target: T1, full-length beta-catenin (Axin site) (Homo sapiens, UniProt P35222); assay: Competition fluorescence polarization assay (Axin site probe); format: binding; details: competition fluorescence polarization, Table 2; read-out: in vitro FP EC50
T1 construct: 15 nM full-length beta-catenin, 20 nM FITC labeled peptide in buffer
T1 sequence (P35222 1-781): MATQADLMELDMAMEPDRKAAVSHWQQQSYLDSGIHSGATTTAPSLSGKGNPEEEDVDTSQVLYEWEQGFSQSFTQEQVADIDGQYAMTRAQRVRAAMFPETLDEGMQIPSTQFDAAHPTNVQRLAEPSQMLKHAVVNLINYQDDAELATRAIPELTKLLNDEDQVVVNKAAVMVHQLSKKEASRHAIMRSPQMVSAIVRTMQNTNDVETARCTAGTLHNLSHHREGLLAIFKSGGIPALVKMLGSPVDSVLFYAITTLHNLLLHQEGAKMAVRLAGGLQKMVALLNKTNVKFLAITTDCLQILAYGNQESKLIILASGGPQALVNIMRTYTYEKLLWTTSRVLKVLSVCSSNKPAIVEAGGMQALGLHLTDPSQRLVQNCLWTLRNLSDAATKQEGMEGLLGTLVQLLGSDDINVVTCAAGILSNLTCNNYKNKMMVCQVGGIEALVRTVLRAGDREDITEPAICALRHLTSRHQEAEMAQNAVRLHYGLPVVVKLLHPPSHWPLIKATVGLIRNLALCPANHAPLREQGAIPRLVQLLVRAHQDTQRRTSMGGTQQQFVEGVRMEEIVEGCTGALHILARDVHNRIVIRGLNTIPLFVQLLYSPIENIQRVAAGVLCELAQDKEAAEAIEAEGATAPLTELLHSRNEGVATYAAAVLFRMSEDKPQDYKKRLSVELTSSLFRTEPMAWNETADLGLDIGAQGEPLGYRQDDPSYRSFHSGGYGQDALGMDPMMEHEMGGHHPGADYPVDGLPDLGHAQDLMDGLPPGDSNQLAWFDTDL
Method: FIG. 1. […] Peptide solutions were prepared in buffer (50 mM Tris pH 8.0, 250 mM NaCl, 2% glycerol, 0.5 mM EDTA, 0.02% w/v sodium azide) using a 3-fold serial dilution from 5 μM. Probe solution (15 nM full-length 13-Catenin, 20 nM FITC labeled peptide (FITC-PEG1-PQ-S5-ILD-S5-HVRRVWR (SEQ ID NO: 1) (hydrocarbon staple formed by two S5 via olefin metathesis)) in buffer) was prepared and incubated for 5 minutes, then 40 μL per well plated in a black polystyrene 384-well plate (Corning). Equal volume of the titrated peptide was added to the plate and incubated protected from light for 15 minutes prior to read. Reads were performed on a Spectramax M5 (Molecular Devices) in duplicate.
FIG. 7. […] BCL9 Competition FP assay: Peptide solutions were prepared in buffer (50 mM Tris pH 8.0, 250 mM NaCl, 2% glycerol, 0.5 mM EDTA, 0.02% w/v sodium azide) using a 3-fold serial dilution from 10 μM. Probe solution (250 nM full-length beta-catenin, 20 nM 5FAM labeled peptide in buffer) was prepared and 40 μL per well plated in a black polystyrene 384-well plate (Corning). Equal volume of the titrated peptide was added to the plate and incubated protected from light for 15 minutes prior to read. Reads were performed on a Spectramax M5 (Molecular Devices) in duplicate. Probe: Ac-[…]nLeu-Leu-2NapA-bala-bala-Lys5FAM-NH2 (SEQ ID NO: 2) (from Biochemistry, 2009, 48 (40), pp 9534-9541). Axin Competition FP assay: Peptide solutions were prepared in buffer (50 mM Tris pH 8.0, 250 mM NaCl, 2% glycerol, 0.5 mM EDTA, 0.02% w/v sodium azide) using a 3-fold serial dilution from 5 μM. Probe solution (15 nM full-length beta-catenin, 20 nM FITC labeled peptide in buffer) was prepared and incubated for 5 minutes, then 40 μL per well plated in a black polystyrene 384-well plate (Corning). Equal volume of the titrated peptide was added to the plate and incubated protected from light for 15 minutes prior to read. Reads were performed on a Spectramax M5 (Molecular Devices) in duplicate. Probe: FITC-StAx-33 from Grossmann et al. PNAS 109 17942-17947.

EC50, > 5 µM:
CC[C@H](C)[C@@H]1NC(=O)[C@H](Cc2ccccn2)NC(=O)[C@H](C)NC(=O)[C@H](CC(=O)O)NC(=O)[C@H](CC(C)C)NC(=O)[C@H]([C@@H](C)CC)NC(=O)[C@](C)(NC(=O)[C@H](C)NC(C)=O)CCCCCCC=CCOC(=O)N2CC[C@@](C(=O)N[C@@H](CCC(N)=O)C(=O)N[C@H](C(=O)N[C@@H](Cc3c[nH]c4ccccc34)C(N)=O)C(C)C)(C2)NC1=O (single isomer, unassigned) [FP0559c Isomer 2, Ac-A-R8-I-L-D-A-2pyr-I-MB-Q-V-W-NH2]
CC[C@H](C)[C@@H]1NC(=O)[C@H](Cc2ccccn2)NC(=O)[C@H](C)NC(=O)[C@H](CC(=O)O)NC(=O)[C@H](CC(C)C)NC(=O)[C@H]([C@@H](C)CC)NC(=O)[C@](C)(NC(=O)[C@H](C)NC(C)=O)CCCCCCC=CCOC(=O)N2CC[C@@](C(=O)N[C@@H](CO)C(=O)N[C@H](C(=O)N[C@@H](Cc3c[nH]c4ccccc34)C(N)=O)C(C)C)(C2)NC1=O (single isomer, unassigned) [FP0560c Isomer 1, Ac-A-R8-I-L-D-A-2pyr-I-MB-S-V-W-NH2]
CC[C@H](C)[C@@H]1NC(=O)[C@H](Cc2ccccn2)NC(=O)[C@H](C)NC(=O)[C@H](CC(=O)O)NC(=O)[C@H](CC(C)C)NC(=O)[C@H]([C@@H](C)CC)NC(=O)[C@](C)(NC(=O)[C@H](C)NC(C)=O)CCCCCCC=CCOC(=O)N2CC[C@@](C(=O)N[C@@H](CO)C(=O)N[C@H](C(=O)N[C@@H](Cc3c[nH]c4ccccc34)C(N)=O)C(C)C)(C2)NC1=O (single isomer, unassigned) [FP0560c Isomer 2, Ac-A-R8-I-L-D-A-2pyr-I-MB-S-V-W-NH2]
CC[C@H](C)[C@@H]1NC(=O)[C@H](Cc2ccccn2)NC(=O)[C@H](C)NC(=O)[C@H](CC(=O)O)NC(=O)[C@H](CC(C)C)NC(=O)[C@H]([C@@H](C)CC)NC(=O)[C@](C)(NC(=O)[C@H](C)NC(C)=O)CCCCCCC=CCOC(=O)N2CC[C@@](C(=O)N[C@H](C(=O)N[C@H](C(=O)N[C@@H](Cc3c[nH]c4ccccc34)C(N)=O)C(C)C)[C@@H](C)O)(C2)NC1=O (single isomer, unassigned) [FP0561c Isomer 1, Ac-A-R8-I-L-D-A-2pyr-I-MB-T-V-W-NH2]
CC[C@H](C)[C@@H]1NC(=O)[C@H](Cc2ccccn2)NC(=O)[C@H](C)NC(=O)[C@H](CC(=O)O)NC(=O)[C@H](CC(C)C)NC(=O)[C@H]([C@@H](C)CC)NC(=O)[C@](C)(NC(=O)[C@H](C)NC(C)=O)CCCCCCC=CCOC(=O)N2CC[C@@](C(=O)N[C@H](C(=O)N[C@H](C(=O)N[C@@H](Cc3c[nH]c4ccccc34)C(N)=O)C(C)C)[C@@H](C)O)(C2)NC1=O (single isomer, unassigned) [FP0561c Isomer 2, Ac-A-R8-I-L-D-A-2pyr-I-MB-T-V-W-NH2]
CC[C@H](C)[C@@H]1NC(=O)[C@H](Cc2ccccn2)NC(=O)[C@H](C)NC(=O)[C@H](CC(=O)O)NC(=O)[C@H](CC(C)C)NC(=O)[C@H]([C@@H](C)CC)NC(=O)[C@](C)(NC(=O)[C@H](C)NC(C)=O)CCCCCCC=CCOC(=O)N2CC[C@@](C(=O)N[C@H](C(=O)N[C@H](C(=O)N[C@@H](Cc3c[nH]c4ccccc34)C(N)=O)C(C)C)C(C)C)(C2)NC1=O (single isomer, unassigned) [FP0562c Isomer 1, Ac-A-R8-I-L-D-A-2pyr-I-MB-V-V-W-NH2]
CC[C@H](C)[C@@H]1NC(=O)[C@H](Cc2ccccn2)NC(=O)[C@H](C)NC(=O)[C@H](CC(=O)O)NC(=O)[C@H](CC(C)C)NC(=O)[C@H]([C@@H](C)CC)NC(=O)[C@](C)(NC(=O)[C@H](C)NC(C)=O)CCCCCCC=CCOC(=O)N2CC[C@@](C(=O)N[C@H](C(=O)N[C@H](C(=O)N[C@@H](Cc3c[nH]c4ccccc34)C(N)=O)C(C)C)C(C)C)(C2)NC1=O (single isomer, unassigned) [FP0562c Isomer 2, Ac-A-R8-I-L-D-A-2pyr-I-MB-V-V-W-NH2]
CC[C@H](C)[C@@H]1NC(=O)[C@H](Cc2ccccn2)NC(=O)[C@H](C)NC(=O)[C@H](CC(=O)O)NC(=O)[C@H](CC(C)C)NC(=O)[C@H]([C@@H](C)CC)NC(=O)[C@](C)(NC(=O)[C@H](C)NC(C)=O)CCCCCCC=CCOC(=O)N2CC[C@@](C(=O)N[C@@H](Cc3c[nH]c4ccccc34)C(=O)N[C@H](C(=O)N[C@@H](Cc3c[nH]c4ccccc34)C(N)=O)C(C)C)(C2)NC1=O (single isomer, unassigned) [FP0563c Isomer 1, Ac-A-R8-I-L-D-A-2pyr-I-MB-W-V-W-NH2]
CC[C@H](C)[C@@H]1NC(=O)[C@H](Cc2ccccn2)NC(=O)[C@H](C)NC(=O)[C@H](CC(=O)O)NC(=O)[C@H](CC(C)C)NC(=O)[C@H]([C@@H](C)CC)NC(=O)[C@](C)(NC(=O)[C@H](C)NC(C)=O)CCCCCCC=CCOC(=O)N2CC[C@@](C(=O)N[C@@H](Cc3c[nH]c4ccccc34)C(=O)N[C@H](C(=O)N[C@@H](Cc3c[nH]c4ccccc34)C(N)=O)C(C)C)(C2)NC1=O (single isomer, unassigned) [FP0563c Isomer 2, Ac-A-R8-I-L-D-A-2pyr-I-MB-W-V-W-NH2]
CC[C@H](C)[C@@H]1NC(=O)[C@H](Cc2ccccn2)NC(=O)[C@H](C)NC(=O)[C@H](CC(=O)O)NC(=O)[C@H](CC(C)C)NC(=O)[C@H]([C@@H](C)CC)NC(=O)[C@](C)(NC(=O)[C@H](C)NC(C)=O)CCCCCCC=CCOC(=O)N2CC[C@@](C(=O)N[C@@H](Cc3ccc(O)cc3)C(=O)N[C@H](C(=O)N[C@@H](Cc3c[nH]c4ccccc34)C(N)=O)C(C)C)(C2)NC1=O (single isomer, unassigned) [FP0564c Isomer 1, Ac-A-R8-I-L-D-A-2pyr-I-MB-Y-V-W-NH2]
CC[C@H](C)[C@@H]1NC(=O)[C@H](Cc2ccccn2)NC(=O)[C@H](C)NC(=O)[C@H](CC(=O)O)NC(=O)[C@H](CC(C)C)NC(=O)[C@H]([C@@H](C)CC)NC(=O)[C@](C)(NC(=O)[C@H](C)NC(C)=O)CCCCCCC=CCOC(=O)N2CC[C@@](C(=O)N[C@@H](Cc3ccc(O)cc3)C(=O)N[C@H](C(=O)N[C@@H](Cc3c[nH]c4ccccc34)C(N)=O)C(C)C)(C2)NC1=O (single isomer, unassigned) [FP0564c Isomer 2, Ac-A-R8-I-L-D-A-2pyr-I-MB-Y-V-W-NH2]
CC[C@H](C)[C@@H]1NC(=O)[C@H](Cc2ccccn2)NC(=O)[C@H](C)NC(=O)[C@H](CC(=O)O)NC(=O)[C@H](CC(C)C)NC(=O)[C@H]([C@@H](C)CC)NC(=O)[C@](C)(NC(=O)[C@H](C)NC(C)=O)CCCCCCC=CCOC(=O)N2CC[C@@](C(=O)N[C@@H](CC3CCC3)C(=O)N[C@H](C(=O)N[C@@H](Cc3c[nH]c4ccccc34)C(N)=O)C(C)C)(C2)NC1=O (single isomer, unassigned) [FP0565c Isomer 1, Ac-A-R8-I-L-D-A-2pyr-I-MB-Cba-V-W-NH2]
CC[C@H](C)[C@@H]1NC(=O)[C@H](Cc2ccccn2)NC(=O)[C@H](C)NC(=O)[C@H](CC(=O)O)NC(=O)[C@H](CC(C)C)NC(=O)[C@H]([C@@H](C)CC)NC(=O)[C@](C)(NC(=O)[C@H](C)NC(C)=O)CCCCCCC=CCOC(=O)N2CC[C@@](C(=O)N[C@@H](CC3CCC3)C(=O)N[C@H](C(=O)N[C@@H](Cc3c[nH]c4ccccc34)C(N)=O)C(C)C)(C2)NC1=O (single isomer, unassigned) [FP0565c Isomer 2, Ac-A-R8-I-L-D-A-2pyr-I-MB-Cba-V-W-NH2]
